Calls of active or inactive are those of the source.
What was measured:
[1] = molecular target: Epstein-Barr nuclear antigen 1 (Epstein-Barr virus (strain B95-8) (HHV-4) (Human herpesvirus 4), UniProt P03211); experiment: inhibition of EBV nuclear antigen 1 DNA binding – biochemical, fluorescence polarization, 1536-well, dose response (AID 2381); set-up: species or system human gammaherpesvirus 4;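 note: fluorescence polarization of a Cy5 DNA probe bound by EBNA-1 protein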
[2] = molecular target: Lytic switch protein BZLF1 (Epstein-Barr virus (strain B95-8) (HHV-4) (Human herpesvirus 4), UniProt P03206); experiment: inhibition of BZLF1 ZTA DNA binding – biochemical, fluorescence polarization, Epstein-Barr virus, 1536-well, counter-screen for EBNA-1 inhibitor project, dose response (AID 2377); set-up: species or system human gammaherpesvirus 4;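 note: fluorescence polarization of Cy5-labelled ZRE DNA probe bound by purified Zta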
Chain of Lytic switch protein BZLF1 (P03206 whole entry): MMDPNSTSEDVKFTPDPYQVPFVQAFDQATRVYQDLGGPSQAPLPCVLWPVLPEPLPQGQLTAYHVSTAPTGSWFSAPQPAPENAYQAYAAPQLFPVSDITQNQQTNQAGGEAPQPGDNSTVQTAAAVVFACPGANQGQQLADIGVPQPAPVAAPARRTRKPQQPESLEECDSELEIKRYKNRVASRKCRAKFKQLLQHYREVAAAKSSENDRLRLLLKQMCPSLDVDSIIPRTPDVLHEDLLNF

[3] = tested on: Streptococcus sp. 'group A'; experiment: Streptococcus pyogenes SK(-)GAS viability under kanamycin – luminescence, BacTiterGlo, confirmation, counter-screen for streptokinase expression inhibitor project, dose response (AID 1900); format: functional, organism-based
BJ [4] = experiment: BJ-TERT fibroblast viability loss – cell-based, RAS-independent, luminescence, dose response (AID 1933); format: functional; details: Homo sapiens
cells [5] = format: functional, cell-based
Beta-galactosidase [6] = molecular target: T1, Beta-galactosidase (Escherichia coli, UniProt Q8VNN2); experiment: PubChem AID 485352; format: functional
T1 sequence (Q8VNN2 whole entry): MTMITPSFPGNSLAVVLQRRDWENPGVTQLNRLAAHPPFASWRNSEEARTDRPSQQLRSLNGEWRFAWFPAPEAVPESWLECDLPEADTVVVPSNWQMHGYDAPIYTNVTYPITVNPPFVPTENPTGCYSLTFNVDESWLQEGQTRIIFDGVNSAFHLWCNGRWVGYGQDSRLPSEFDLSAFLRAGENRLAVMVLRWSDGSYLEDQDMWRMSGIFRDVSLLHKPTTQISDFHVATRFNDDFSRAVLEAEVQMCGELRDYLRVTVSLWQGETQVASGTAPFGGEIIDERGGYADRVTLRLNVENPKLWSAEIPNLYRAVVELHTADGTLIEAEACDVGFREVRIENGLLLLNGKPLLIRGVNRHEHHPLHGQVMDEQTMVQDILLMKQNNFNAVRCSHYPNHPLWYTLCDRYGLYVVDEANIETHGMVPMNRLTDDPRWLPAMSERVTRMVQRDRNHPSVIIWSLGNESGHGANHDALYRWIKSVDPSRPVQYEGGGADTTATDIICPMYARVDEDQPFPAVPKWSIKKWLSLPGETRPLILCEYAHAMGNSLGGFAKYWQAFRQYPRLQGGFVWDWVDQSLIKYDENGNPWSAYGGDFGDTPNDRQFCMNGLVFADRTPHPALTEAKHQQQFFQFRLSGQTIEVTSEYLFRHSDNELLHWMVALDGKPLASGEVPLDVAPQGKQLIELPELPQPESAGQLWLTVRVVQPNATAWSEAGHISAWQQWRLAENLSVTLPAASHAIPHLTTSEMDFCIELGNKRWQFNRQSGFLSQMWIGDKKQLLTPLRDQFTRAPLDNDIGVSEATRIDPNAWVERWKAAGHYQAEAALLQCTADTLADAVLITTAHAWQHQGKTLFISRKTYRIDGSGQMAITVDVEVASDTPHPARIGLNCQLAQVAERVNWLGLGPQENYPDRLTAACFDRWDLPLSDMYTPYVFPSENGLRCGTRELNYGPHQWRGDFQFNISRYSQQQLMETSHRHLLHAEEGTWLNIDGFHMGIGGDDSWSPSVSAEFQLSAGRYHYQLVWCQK

Streptokinase A = molecular target: T2, Streptokinase A (Streptococcus pyogenes serotype M1, UniProt P10520); experiment: viability-normalized secreted streptokinase activity reduction – plasminogen activation absorbance, OD405, dose response (AID 1914); format: functional, Streptococcus pyogenes M1 GAS;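 note: secreted streptokinase activity via plasminogen activation per viability signal from cell pellet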
T2 sequence (P10520 whole entry): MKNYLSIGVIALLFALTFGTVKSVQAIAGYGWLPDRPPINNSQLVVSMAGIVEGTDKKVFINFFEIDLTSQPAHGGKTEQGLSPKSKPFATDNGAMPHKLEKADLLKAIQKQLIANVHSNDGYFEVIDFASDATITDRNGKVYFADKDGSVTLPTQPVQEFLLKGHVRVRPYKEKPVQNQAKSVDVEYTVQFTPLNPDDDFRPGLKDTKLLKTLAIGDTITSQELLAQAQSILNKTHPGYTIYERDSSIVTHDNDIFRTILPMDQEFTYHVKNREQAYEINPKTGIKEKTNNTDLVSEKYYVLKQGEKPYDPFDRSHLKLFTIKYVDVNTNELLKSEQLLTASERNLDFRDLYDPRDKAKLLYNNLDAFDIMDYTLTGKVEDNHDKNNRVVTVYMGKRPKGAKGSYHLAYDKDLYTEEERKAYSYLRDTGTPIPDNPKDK

BJ [7] = experiment: cells; format: functional, cell-based; details: Homo sapiens
[8] = Luminescence-based dose response cell-based high throughput screening assay for cytotoxic compounds using the IEC-6 intestinal epithelial cell line. [Related pubchem assays: 1858 (Summary AID.), 1825 (Counterscreen.), 1907 (Confirmation screen.)]; format: functional
[9] = molecular target: T3, Type-1 angiotensin II receptor (Homo sapiens, UniProt P30556); experiment: antagonism of angiotensin II type 1 receptor – cell-based, uHTS hits, selectivity assay for APJ receptor antagonist project, dose response (AID 463214); format: functional;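 note: antagonist potency against angiotensin II stimulated AT1 response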
T3 sequence (P30556 whole entry): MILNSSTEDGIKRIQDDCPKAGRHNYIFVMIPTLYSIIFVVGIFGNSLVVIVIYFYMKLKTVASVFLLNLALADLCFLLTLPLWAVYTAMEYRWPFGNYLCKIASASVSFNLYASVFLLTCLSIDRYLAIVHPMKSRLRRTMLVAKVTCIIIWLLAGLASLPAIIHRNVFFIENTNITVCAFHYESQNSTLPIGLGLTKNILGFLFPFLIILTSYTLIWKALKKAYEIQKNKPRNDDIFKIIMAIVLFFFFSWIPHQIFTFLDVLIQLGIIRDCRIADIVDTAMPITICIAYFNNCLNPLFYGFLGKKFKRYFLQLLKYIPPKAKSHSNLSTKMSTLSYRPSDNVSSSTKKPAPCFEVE

cells [10] = format: functional, cell-based; remark: listed apart in the source
[11] = molecular target: T4, Kappa-type opioid receptor (Homo sapiens, UniProt P41145); format: functional
T4 sequence (P41145 whole entry): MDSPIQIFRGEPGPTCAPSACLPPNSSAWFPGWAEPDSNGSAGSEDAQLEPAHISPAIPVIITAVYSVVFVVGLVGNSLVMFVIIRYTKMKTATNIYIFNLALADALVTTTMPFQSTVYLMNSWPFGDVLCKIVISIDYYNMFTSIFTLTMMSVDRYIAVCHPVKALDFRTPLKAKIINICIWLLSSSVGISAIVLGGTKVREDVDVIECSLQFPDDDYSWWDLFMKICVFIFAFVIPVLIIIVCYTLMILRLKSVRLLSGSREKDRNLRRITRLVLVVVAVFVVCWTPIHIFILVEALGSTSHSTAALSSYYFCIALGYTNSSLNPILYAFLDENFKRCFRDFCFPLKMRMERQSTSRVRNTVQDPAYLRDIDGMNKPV

Beta-galactosidase [12] = molecular target: T1, Beta-galactosidase; format: functional
BJ [13] = experiment: BJ-TERT-LT-ST fibroblast viability loss – cell-based, RAS-independent, luminescence, dose response (AID 1935); format: functional; details: Homo sapiens;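 note: BJ fibroblasts immortalized with TERT plus LT and ST oncogenes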
[14] = molecular target: T4, Kappa-type opioid receptor; format: functional; remark: listed apart in the source
[15] = DRD fibroblast viability loss – cell-based, non-viral oncogenic, luminescence, dose response (AID 1934); format: functional; details: Homo sapiens
Streptococcus = experiment: GAS UMAA2166 growth inhibition – luminescence, BacTiterGlo, counter-screen for streptokinase expression inhibitor project, dose response (AID 1915); format: functional, organism-based;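 note: potency for reduction of bacterial viability or growth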
[16] = THP-1 cell cytotoxicity, dose response, cytotoxicity control for non-replicating M. tuberculosis project (AID 489025); format: functional
[17] = HepG2 cell cytotoxicity, dose response, cytotoxicity control for non-replicating M. tuberculosis project (AID 489018); format: functional; details: Mycobacterium tuberculosis
[18] = Vero E6 cell cytotoxicity, dose response, cytotoxicity control for non-replicating M. tuberculosis project, secondary assay (AID 492998); format: functional, VeroE6; details: Vero C1008
[19] = HEK-293T viability loss after treatment – luminescence, T-cell screen hits, cytotoxicity control for TCR NF-kB inhibitor project, dose response (AID 489026); format: functional, cell-based;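 note: cells exposed to compound about 14 hours before the viability readout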
[20] = molecular target: T5, Heat shock factor protein 1 (Mus musculus, UniProt P38532); experiment: enhancement of HSF1-driven luciferase signal – cell-based, NIH3T3, luminescence, dose retest, confirmation (AID 435004); format: functional;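 note: stress induced by proteasome inhibitor MG132 added 30 min after compound; luciferase reporter driven by HSF1 response element in NIH3T3 cells; actives raise luminescence as potentiators of the MG132 stress response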
T5 sequence (P38532 whole entry): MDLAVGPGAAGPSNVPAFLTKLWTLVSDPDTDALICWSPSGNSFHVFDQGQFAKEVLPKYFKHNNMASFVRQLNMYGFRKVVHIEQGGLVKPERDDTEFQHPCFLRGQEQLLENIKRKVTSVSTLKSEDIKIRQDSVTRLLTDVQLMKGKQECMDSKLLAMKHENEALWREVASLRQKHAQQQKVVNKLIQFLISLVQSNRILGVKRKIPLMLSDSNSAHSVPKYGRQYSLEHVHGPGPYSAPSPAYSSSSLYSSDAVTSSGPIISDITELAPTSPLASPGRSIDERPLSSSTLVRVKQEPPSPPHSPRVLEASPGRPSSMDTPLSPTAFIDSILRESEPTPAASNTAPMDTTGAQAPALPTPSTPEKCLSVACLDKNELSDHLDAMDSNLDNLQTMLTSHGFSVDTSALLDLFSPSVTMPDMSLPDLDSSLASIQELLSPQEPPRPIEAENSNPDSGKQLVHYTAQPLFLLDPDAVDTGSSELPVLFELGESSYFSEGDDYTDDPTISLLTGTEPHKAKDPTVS

cells [21] = format: functional
BJ [22] = experiment: growth inhibition of engineered Ras-driven BJ cells – cell-based, alamar blue fluorescence, cherrypicked samples, dose response (AID 2631); format: functional; details: Homo sapiens;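 note: confirmatory dose-response assay in RAS-dependent BJ fibroblasts engineered with TERT, LT and ST, with cytotoxicity read by fluorescence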
INS1 = experiment: INS-1E survival protection against cytokine death – cell-based, luminescence, retest, dose response (AID 449756); format: functional; details: Rattus norvegicus;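 note: cell death triggered by IL-1 beta plus TNF-alpha plus IFN-gamma mixture; protective hits raise ATP signal compared with cytokine alone wells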
Vero = experiment: cells; format: functional; details: Chlorocebus sabaeus
[23] = bead-based luminescence quenchers, dual-tagged ARNT – biochemical, AlphaScreen, cherry-pick, artefact control for ARNT-TACC3 interaction inhibitor project, dose response (AID 651705); format: functional;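 note: AlphaScreen bead proximity signal that flags compounds interfering with the detection technology; potency reflects signal decrease which marks the compound as an assay artifact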
Estrogen receptor beta [24] = molecular target: T6, Estrogen receptor beta (Homo sapiens, UniProt Q92731);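 note: recombinant ER-beta bound to coactivator SRC1 peptide in presence of estradiol agonist; inhibitors block coactivator peptide binding and lower the FRET signal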
T6 sequence (Q92731 whole entry): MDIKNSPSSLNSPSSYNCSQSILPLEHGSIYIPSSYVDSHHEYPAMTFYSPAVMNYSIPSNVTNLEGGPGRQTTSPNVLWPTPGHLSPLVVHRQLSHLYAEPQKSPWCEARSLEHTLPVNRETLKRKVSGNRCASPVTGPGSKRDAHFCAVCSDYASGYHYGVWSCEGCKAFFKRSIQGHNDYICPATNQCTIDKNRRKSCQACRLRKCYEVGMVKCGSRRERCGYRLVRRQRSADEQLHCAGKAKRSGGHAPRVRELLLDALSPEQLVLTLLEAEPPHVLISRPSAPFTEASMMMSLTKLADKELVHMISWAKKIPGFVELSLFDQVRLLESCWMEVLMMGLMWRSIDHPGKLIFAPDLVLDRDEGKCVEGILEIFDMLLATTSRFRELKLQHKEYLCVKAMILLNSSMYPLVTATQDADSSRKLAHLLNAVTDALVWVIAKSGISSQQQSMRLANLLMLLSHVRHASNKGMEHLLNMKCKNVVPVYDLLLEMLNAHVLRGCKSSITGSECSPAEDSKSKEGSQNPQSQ

Estrogen receptor beta [25] = molecular target: T6, Estrogen receptor beta; experiment: blockers of SRC-3 recruitment to ERβ – biochemical, ELISA, streptavidin-HRP readout, orthogonal assay, confirmation (AID 1060)
[26] = molecular target: T7, Carboxy-terminal domain RNA polymerase II polypeptide A small phosphatase 1 (Homo sapiens, UniProt Q9GZU7); experiment: CTDSP1 inhibitors, concentration-response, biochemical, absorbance readout, ultra-high-throughput screen actives (AID 540297); format: functional
T7 sequence (Q9GZU7 whole entry): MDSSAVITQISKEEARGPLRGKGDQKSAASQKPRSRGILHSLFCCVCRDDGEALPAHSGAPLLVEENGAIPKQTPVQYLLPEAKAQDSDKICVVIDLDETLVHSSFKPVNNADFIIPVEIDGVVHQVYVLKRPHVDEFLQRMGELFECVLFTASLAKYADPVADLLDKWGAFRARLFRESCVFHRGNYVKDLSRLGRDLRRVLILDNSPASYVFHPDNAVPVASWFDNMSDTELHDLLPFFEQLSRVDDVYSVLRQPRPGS

SUMO-activating enzyme [27] = molecular target: T8, SUMO-activating enzyme (Homo sapiens, UniProt Q9UBT2); experiment: blockers of UBC9-mediated SUMO conjugation – biochemical, AlphaScreen, SUMOylation inhibitor project, confirmation (AID 2018); format: functional
T8 sequence (Q9UBE0 whole entry): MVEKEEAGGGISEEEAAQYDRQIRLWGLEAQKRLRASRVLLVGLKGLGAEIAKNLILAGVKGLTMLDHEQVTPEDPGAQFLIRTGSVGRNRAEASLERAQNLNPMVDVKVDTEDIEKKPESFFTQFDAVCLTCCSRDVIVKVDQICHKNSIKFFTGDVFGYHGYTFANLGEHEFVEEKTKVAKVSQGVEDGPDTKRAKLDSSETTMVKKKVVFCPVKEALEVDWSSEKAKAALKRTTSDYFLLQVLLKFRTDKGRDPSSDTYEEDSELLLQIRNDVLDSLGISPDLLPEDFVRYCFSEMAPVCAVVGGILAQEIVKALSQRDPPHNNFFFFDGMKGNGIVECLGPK
T8 sequence (Q9UBT2 whole entry): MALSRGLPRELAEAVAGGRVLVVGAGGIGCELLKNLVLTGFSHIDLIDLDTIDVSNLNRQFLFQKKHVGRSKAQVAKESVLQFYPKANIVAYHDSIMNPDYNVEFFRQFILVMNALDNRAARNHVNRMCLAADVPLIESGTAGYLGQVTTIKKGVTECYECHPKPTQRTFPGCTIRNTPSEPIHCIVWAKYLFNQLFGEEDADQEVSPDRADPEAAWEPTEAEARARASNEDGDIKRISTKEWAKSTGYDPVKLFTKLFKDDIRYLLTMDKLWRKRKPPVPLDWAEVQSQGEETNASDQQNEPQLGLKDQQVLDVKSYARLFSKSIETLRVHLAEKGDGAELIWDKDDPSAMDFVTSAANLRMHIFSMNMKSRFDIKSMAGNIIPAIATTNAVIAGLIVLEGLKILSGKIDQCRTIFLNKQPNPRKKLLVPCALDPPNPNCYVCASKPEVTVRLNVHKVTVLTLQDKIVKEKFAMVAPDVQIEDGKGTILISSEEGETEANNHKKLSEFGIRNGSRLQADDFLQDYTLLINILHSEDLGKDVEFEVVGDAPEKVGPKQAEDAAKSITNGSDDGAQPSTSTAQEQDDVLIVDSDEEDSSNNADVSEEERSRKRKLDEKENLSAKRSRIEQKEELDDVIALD

SUMO-activating enzyme [28] = molecular target: T8, SUMO-activating enzyme; experiment: blockers of SAE1/SAE2–UBC9 SUMO transfer – biochemical, HTRF, uHTS, primary screen (AID 2006); format: protein-complex assay
[29] = molecular target: Induced myeloid leukemia cell differentiation protein Mcl-1 (Homo sapiens, UniProt Q07820); experiment: blockers of MCL1 binding to BIM peptide – biochemical, fluorescence polarization, BIM-BH3 peptide, 1536-well, dose response (AID 2217)
Chain of Induced myeloid leukemia cell differentiation protein Mcl-1 (Q07820 whole entry): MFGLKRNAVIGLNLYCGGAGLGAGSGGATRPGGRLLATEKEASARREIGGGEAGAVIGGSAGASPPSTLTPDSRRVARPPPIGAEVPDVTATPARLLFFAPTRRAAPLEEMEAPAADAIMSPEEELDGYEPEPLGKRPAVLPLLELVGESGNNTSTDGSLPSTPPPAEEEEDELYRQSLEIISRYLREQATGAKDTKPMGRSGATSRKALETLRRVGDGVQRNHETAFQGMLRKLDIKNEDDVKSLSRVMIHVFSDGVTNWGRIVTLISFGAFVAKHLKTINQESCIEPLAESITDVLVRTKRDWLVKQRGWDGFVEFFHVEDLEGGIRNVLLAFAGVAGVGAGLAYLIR

Bcl-2-like protein 1 = Bcl-2-like protein 1 (Homo sapiens, UniProt Q07817); experiment: blockers of BCLXL peptide binding – biochemical, fluorescence polarization, 1536-well, selectivity assay for MCL1 inhibitor project, dose response (AID 2218)
Chain of Bcl-2-like protein 1 (Q07817 whole entry): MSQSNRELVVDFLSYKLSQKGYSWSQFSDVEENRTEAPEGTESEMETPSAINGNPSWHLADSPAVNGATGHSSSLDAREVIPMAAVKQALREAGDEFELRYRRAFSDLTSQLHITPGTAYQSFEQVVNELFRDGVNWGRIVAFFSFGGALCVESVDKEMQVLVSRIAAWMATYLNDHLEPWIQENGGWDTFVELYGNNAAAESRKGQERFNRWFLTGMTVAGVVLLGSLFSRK

Chain of Epstein-Barr nuclear antigen 1 (P03211 whole entry): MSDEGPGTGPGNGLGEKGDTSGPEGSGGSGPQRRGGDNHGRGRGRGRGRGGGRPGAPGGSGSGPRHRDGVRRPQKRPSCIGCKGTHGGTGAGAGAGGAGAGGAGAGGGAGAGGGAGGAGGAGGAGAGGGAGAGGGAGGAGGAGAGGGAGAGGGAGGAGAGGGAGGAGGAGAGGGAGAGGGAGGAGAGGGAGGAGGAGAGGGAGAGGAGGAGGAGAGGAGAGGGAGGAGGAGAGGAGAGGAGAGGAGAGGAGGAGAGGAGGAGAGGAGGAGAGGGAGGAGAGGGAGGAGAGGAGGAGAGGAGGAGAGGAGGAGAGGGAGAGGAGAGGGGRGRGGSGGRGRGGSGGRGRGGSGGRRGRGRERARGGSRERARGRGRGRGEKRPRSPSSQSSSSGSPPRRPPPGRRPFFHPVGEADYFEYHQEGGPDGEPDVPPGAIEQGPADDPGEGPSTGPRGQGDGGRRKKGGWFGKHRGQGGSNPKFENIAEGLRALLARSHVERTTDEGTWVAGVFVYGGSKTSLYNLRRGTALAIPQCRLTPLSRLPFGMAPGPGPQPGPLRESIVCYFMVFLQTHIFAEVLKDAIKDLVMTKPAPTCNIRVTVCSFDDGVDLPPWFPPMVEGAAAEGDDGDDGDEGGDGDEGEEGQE

## Cc1cc(NC(=O)COC(=O)c2oc3c(ccc4ccccc43)c2C)no1
[1]
  IC50: 9.17 µM (active)
[2]
  IC50: > 111 µM (not active)

## O=C(N/N=C(\c1ccccc1)c1cccnc1)c1cccc(F)c1
[3]
  EC50: 5.5 µM (active)
BJ [4]
  EC50: 12.4 µM (active)
Cells [5]
  EC50: 28.7 µM (active)
Beta-galactosidase [6]
  EC50: > 40 µM (inactive)
Streptokinase A
  EC50: > 150 µM (not active)
BJ [7]
  EC50: 5.95 µM (active)
[8]
  IC50: 0.747 µM (active)
[9]
  IC50: 10.8 µM (active)
Cells [10]
  EC50: > 350 µM (not active)
[11]
  IC50: 13.1 µM (active)
Beta-galactosidase [12]
  EC50: > 31.5 µM (inactive)
BJ [13]
  EC50: 4.43 µM (active)
[14]
  IC50: > 32 µM
[15]
  EC50: 5.35 µM (inconclusive)
Streptococcus
  EC50: 11 µM (active)
[16]
  CC50: 0.726 µM (active)
[17]
  CC50: 9.37 µM (active)
[18]
  CC50: 1.18 µM (active)
[19]
  IC50: > 80 µM (inactive)
[20]
  EC50: 21.5 µM (active)
Cells [21]
  IC50: 1.73 µM (active)
BJ [22]
  EC50: 0.939 µM (active)
INS1
  AC50: 0.519 µM (active)
Vero
  CC50: 1.7 µM (active)
[23]
  AC50: 120 µM (active)

## CCOC(=O)C1CCCN(C(=O)c2ccc(CS(=O)(=O)c3ccc(C)cc3)o2)C1 (centres undefined)
Estrogen receptor beta [24]
  IC50: 13.7 µM (active)
Estrogen receptor beta [25]
  IC50: < 0.023 µM (not active)
[26]
  IC50: 7.41 µM (active)

## Cc1ccc(C(=O)O)cc1-c1ccc(/C=C2\SC(=O)N(CC(=O)Nc3ccc4c(c3)OCO4)C2=O)o1
SUMO-activating enzyme [27]
  IC50: 4.35 µM (active)
SUMO-activating enzyme [28]
  IC50: 10.3 µM (active)
[29]
  IC50: > 4.03 µM (active)
Bcl-2-like protein 1
  IC50: > 109 µM (not active)

— ChEMBL document CHEMBL1201862, “PubChem BioAssay data set” (2004)
